Earlier results on two molecules are cited in article PMC10147685, “Safety, tolerability, and pharmacokinetics of Aurora kinase B inhibitor AZD2811: a phase 1 dose-finding study in patients with advanced solid tumours” (British Journal of Cancer, 2023).

Data set [1] deals with patients with advanced solid tumours. Also on record: method as in PMID 27349901. The conditions noted are these: cited from earlier work.
The next data set has as its system advanced solid tumours. Also on record: method as in PMID 22661287. The conditions noted are these: cited from earlier work.

For the molecule `CC(C)NC(=O)[C@H]1CCC[C@H]1Nc1nc(Nc2ccc(C(=O)N(C)C3CCN(C)CC3)cc2)ncc1C(F)(F)F` [BI 811283], the Objective responses entry in data set [1] is “no objective responses”. The “Patients with SD” value in data set [1] (depending on the treatment schedule) is listed as 30–33%.

On to `CCN(CCCOc1ccc2c(Nc3cc(CC(=O)Nc4cccc(F)c4)n[nH]3)ncnc2c1)CCOP(=O)(O)O` [barasertib], for which, in the data set on advanced solid tumours, the Objective responses result was “no objective responses” and the “Patients with SD” value is recorded as 23%.
